Target: T1, human MCH-1R (Homo sapiens, UniProt Q99705)
T1 construct: expressed in transfected cells; host or cells: CHO-K1 (American Type Culture Collection), vector pEF/myc/cyto
Test: MCH binding inhibition test ([125I]MCH binding to membranes of MCH-1R expressing CHO-K1 cells)
Conditions: membranes of CHO-K1 cells expressing human MCH-1R; 50 pM [125I]MCH; 25° C., 1 hour; pH 7.4; read-out: IC50 (50% inhibition concentration of test compound to the specific [125I]MCH binding)
From the text: Pharmacological Test Example: MCH Binding Inhibition Test
A human MCH-1R encoding cDNA sequence [FEBS Letters, Vol. 398, 253 (1996); Biochimica et Biophisica Acta, Vol. 1401, 216 (1998)] was cloned to a plasmid vector pEF/myc/cyto (by Invitrogen Corporation). The obtained expression vector was transfected to host cells CHO-K1 (American Type Culture Collection) using Lipofectamine Plus Reagent (by Life Technology Inc.) to provide MCH-1R expression cells.
Membrane samples prepared from the MCH-1R expression cells were incubated with each test compound and 50 pM of [^125I]MCH (by NEN Co.), in an assay buffer (50 mM Tris buffer comprising 10 mM magnesium chloride, 2 mM ethylenediamine tetraacetate, 0.01% bacitracin and 0.2% bovine serum albumin; pH 7.4) at 25° C. for an hour, followed by filtration through a glass filter GF/C (by Wattman Co.). After washing the glass filter with 50 mM Tris buffer (pH 7.4) comprising 10 mM magnesium chloride, 2 mM ethylenediamine tetraacettic acid and 0.04% Tween-20, the radio activity on the glass filter was measured. The non-specific binding was measured in the presence of 1 μM human MCH, and the 50% inhibition concentration (IC50 value) of each test compound to the specific [^125I]MCH binding was determined.

T1 sequence (Q99705 whole entry): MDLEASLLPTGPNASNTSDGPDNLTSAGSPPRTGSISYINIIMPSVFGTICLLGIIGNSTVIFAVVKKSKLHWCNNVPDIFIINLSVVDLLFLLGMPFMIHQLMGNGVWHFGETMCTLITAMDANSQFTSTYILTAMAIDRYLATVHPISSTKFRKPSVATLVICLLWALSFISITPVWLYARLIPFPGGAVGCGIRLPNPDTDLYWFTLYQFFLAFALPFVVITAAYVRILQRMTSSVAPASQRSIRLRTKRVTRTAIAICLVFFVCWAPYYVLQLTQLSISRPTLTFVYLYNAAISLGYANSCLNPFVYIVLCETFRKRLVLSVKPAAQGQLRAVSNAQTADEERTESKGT

Which IC50 does the source give for `COc1cc(C(=O)NC2CCN(Cc3cc4sccc4n3C)CC2)cc(OC)c1C` [Example 2-25, 4-methyl-3,5-bis(methyloxy)-N-{1-[(4-methyl-4H-thieno[3,2-b]pyrrol-5-yl)methyl]-4-piperidinyl]benzamide] here?
The IC50 was 16 nM.

For `COc1cc(C(=O)NC2CCN(Cc3cn(C)c4ccccc34)CC2)cc(OC)c1C` [Example 2-2, 4-methyl-N-{1-[(1-methyl-1-H-indol-3-yl)methyl]-4-piperidinyl}-3,5-bis(methyloxy)benzamide], which IC50 is on record?
The IC50 was 13 nM.

`COc1cc(C(=O)NC2CCN(Cc3[nH]c4ccccc4c3C)CC2)cc(OC)c1C` [Example 2-18, 4-methyl-N-{1-[(3-methyl-1H-indol-2-yl)methyl]-4-piperidinyl}-3,5-bis(methyloxy)benzamide] was tested. Which IC50 did it give?
Its IC50 is 6.8 nM.

With `C#CCn1cc(CN2CCC(NC(=O)c3cc(OC)c(C)c(OC)c3)CC2)c2ccccc21` [Example 2-10, 4-methyl-3,5-bis(methyloxy)-N-(1-{[1-(2-propyn-1-yl)-1H-indol-3-yl]methyl}-4-piperidinyl)benzamide] as the compound, how does the IC50 read?
Its IC50 is 22 nM.

`COc1cc(C(=O)NC2CCN(Cc3c(C)n(C)c4ccccc34)CC2)cc(OC)c1C` [Example 2-5, N-{1-[(1,2-dimethyl-1H-indol-3-yl)methyl]-4-piperidinyl}-4-methyl-3,5-bis(methyloxy)benzamide] was tested. Which IC50 did it give?
The IC50 was 26 nM.

Reference: patent US20110124674A1, “5/5-OR 5/6-MEMBERED CONDENSED RING CYCLOALKYLAMINE DERIVATIVE” (priority 2008, published 2011)
